Patent publication US20070128217A1 (priority 2003, published 2007)

Experiments:
[1] = system: antibodies in sera from SARS patients (sera 1a, 1b, 2, 6, 37, 62, London, SARS-yellow, SARS-green); format: binding, human; set-up: Binding of serum 6 to linear peptides of protein X1 of SARS-CoV Urbani / Binding of serum 37 to linear peptides of protein X1 of SARS-CoV Urbani / Binding of serum 6 to looped/cyclic peptide (PEPSCAN-ELISA) / Binding of serum 37 to looped/cyclic peptide (PEPSCAN-ELISA) / Binding of serum 37 to looped/cyclic peptides of protein X1 of SARS-CoV Urbani / Binding of serum 6 to linear peptides of protein X2 / Binding of serum 37 to linear peptides of protein X2 / Binding of serum 37 to looped/cyclic peptides of protein X2 of SARS-CoV Urbani / Binding of serum 6 to linear peptides of protein M of SARS-CoV Urbani / Binding of serum 37 to linear peptides of protein M of SARS-CoV Urbani / Binding of serum 6 to looped/cyclic peptides of protein M of SARS-CoV Urbani / Binding of serum 37 to looped/cyclic peptides of protein M of SARS-CoV Urbani / Binding of serum 6 to linear peptides of protein X3 of SARS-CoV Urbani / Binding of serum 37 to linear peptides of protein X3 of SARS-CoV Urbani / Binding of serum 37 to looped/cyclic peptides of protein X3 of SARS-CoV Urbani / Binding of serum 6 to linear peptides of protein X4 of SARS-CoV Urbani / Binding of serum 37 to linear peptides of protein X4 of SARS-CoV Urbani / Binding of serum 37 to looped/cyclic peptides of protein X4 of SARS-CoV Urbani / Binding of serum 6 to linear peptides of protein X5 of SARS-CoV Urbani / Binding of serum 37 to linear peptides of protein X5 of SARS-CoV Urbani / Binding of serum 37 to looped/cyclic peptides of protein X5 of SARS-CoV Urbani / Binding of serum 6 to linear peptides of protein N of SARS-CoV Urbani / Binding of serum 37 to linear peptides of protein N of SARS-CoV Urbani / Binding of serum 6 to linear peptide (PEPSCAN-ELISA) / Binding of serum 1a to looped/cyclic peptides of protein N of SARS-CoV Urbani / Binding of serum 1b to looped/cyclic peptides of protein N of SARS-CoV Urbani / Binding of serum 2 to looped/cyclic peptides of protein N of SARS-CoV Urbani / Binding of serum 6 to looped/cyclic peptides of protein N of SARS-CoV Urbani / Binding of serum 37 to looped/cyclic peptides of protein N of SARS-CoV Urbani / Binding of serum 62 to looped/cyclic peptides of protein N of SARS-CoV Urbani / Binding of serum London to looped/cyclic peptides of protein N of SARS-CoV Urbani / Binding of serum SARS-green to looped/cyclic peptides of protein N of SARS-CoV Urbani: unit not given here
[2] = system: control sera (pooled serum of ten healthy LUMC hospital workers; commercial negative donor pooled serum from the Dutch bloodbank); format: binding, human; set-up: Binding of Control serum LUMC to linear peptides / Binding of Control serum Blood-bank to linear peptides / Binding of Control serum LUMC to looped peptides / Binding of Control Serum Blood-Bank to Looped peptides / Binding of Control serum LUMC to linear peptides of the protein M of SARS-CoV Urbani / Binding of Control serum Blood-bank to linear peptides of the protein M of SARS-CoV Urbani / Binding of Control serum LUMC to looped peptides of the protein M of SARS-CoV Urbani / Binding of Control Serum Blood-Bank to Looped peptides of the protein M of SARS-CoV Urbani: unit not given here
[3] = system: rabbit serum obtained by immunizing a rabbit with the SARS-CoV strain Frankfurt 1; format: binding; set-up: Binding of a rabbit serum to linear peptides / Binding of a rabbit serum to looped peptides / Rabbit serum linear peptides / Rabbit serum looped peptides / Binding of a rabbit serum to linear peptides of protein N of SARS-CoV Urbani (Rabbit serum linear peptides) / Binding of a rabbit serum to looped/cyclic peptides of protein N of SARS-CoV Urbani (Rabbit serum looped peptides): unit not given here

YNRYRIGNYKLNTDH
Binding of serum 1a to linear peptides of protein M of SARS-CoV Urbani [1]: 0.7 | Binding of serum 1a to looped/cyclic peptides of protein M of SARS-CoV Urbani [1]: 0.8 | Binding of serum 1b to linear peptides of protein M of SARS-CoV Urbani [1]: 0.6 | Binding of serum 1b to looped/cyclic peptides of protein M of SARS-CoV Urbani [1]: 0.7 | Binding of serum 2 to linear peptides of protein M of SARS-CoV Urbani [1]: 0.4 | Binding of serum 2 to looped/cyclic peptides of protein M of SARS-CoV Urbani [1]: 0.7 | Binding of serum 6 to linear peptides of protein M of SARS-CoV Urbani [1]: 0.5 | Binding of serum 6 to looped/cyclic peptides of protein M of SARS-CoV Urbani [1]: 1.1 | Binding of serum 37 to linear peptides of protein M of SARS-CoV Urbani [1]: 0.5 | Binding of serum 37 to looped/cyclic peptides of protein M of SARS-CoV Urbani [1]: 0.5 | Binding of serum 62 to linear peptides of protein M of SARS-CoV Urbani [1]: 0.4 | Binding of serum 62 to looped/cyclic peptides of protein M of SARS-CoV Urbani [1]: 0.6 | Binding of serum London to linear peptides of protein M of SARS-CoV Urbani [1]: 0.5 | Binding of serum London to looped/cyclic peptides of protein M of SARS-CoV Urbani [1]: 0.6 | Binding of serum SARS-green to linear peptides of protein M of SARS-CoV Urbani [1]: 0.4 | Binding of serum SARS-green to looped/cyclic peptides of protein M of SARS-CoV Urbani [1]: 0.3 | Binding of serum SARS-yellow to linear peptides of protein M of SARS-CoV Urbani [1]: 0.1 | Binding of serum SARS-yellow to looped/cyclic peptides of protein M of SARS-CoV Urbani [1]: 0.7 | Binding of Control Serum Blood-Bank to Looped peptides of the protein M of SARS-CoV Urbani [2]: 0.8 | Binding of Control serum Blood-bank to linear peptides of the protein M of SARS-CoV Urbani [2]: 0.5 | Binding of Control serum LUMC to linear peptides of the protein M of SARS-CoV Urbani [2]: 0.6 | Binding of Control serum LUMC to looped peptides of the protein M of SARS-CoV Urbani [2]: 0.9 | Rabbit serum linear peptides [3]: 0.3 | Rabbit serum looped peptides [3]: 0.5

VYRINWVTGGIAIAM
Binding of serum 1a to linear peptides of protein M of SARS-CoV Urbani [1]: 0.9 | Binding of serum 1a to looped/cyclic peptides of protein M of SARS-CoV Urbani [1]: 0.7 | Binding of serum 1b to linear peptides of protein M of SARS-CoV Urbani [1]: 0.8 | Binding of serum 1b to looped/cyclic peptides of protein M of SARS-CoV Urbani [1]: 0.4 | Binding of serum 2 to linear peptides of protein M of SARS-CoV Urbani [1]: 0.8 | Binding of serum 2 to looped/cyclic peptides of protein M of SARS-CoV Urbani [1]: 0.6 | Binding of serum 6 to linear peptides of protein M of SARS-CoV Urbani [1]: 1.0 | Binding of serum 6 to looped/cyclic peptides of protein M of SARS-CoV Urbani [1]: 0.5 | Binding of serum 37 to linear peptides of protein M of SARS-CoV Urbani [1]: 0.6 | Binding of serum 37 to looped/cyclic peptides of protein M of SARS-CoV Urbani [1]: 0.7 | Binding of serum 62 to linear peptides of protein M of SARS-CoV Urbani [1]: 0.6 | Binding of serum 62 to looped/cyclic peptides of protein M of SARS-CoV Urbani [1]: 1.1 | Binding of serum London to linear peptides of protein M of SARS-CoV Urbani [1]: 0.6 | Binding of serum London to looped/cyclic peptides of protein M of SARS-CoV Urbani [1]: 0.2 | Binding of serum SARS-green to linear peptides of protein M of SARS-CoV Urbani [1]: 0.7 | Binding of serum SARS-green to looped/cyclic peptides of protein M of SARS-CoV Urbani [1]: 0.3 | Binding of serum SARS-yellow to linear peptides of protein M of SARS-CoV Urbani [1]: 0.3 | Binding of serum SARS-yellow to looped/cyclic peptides of protein M of SARS-CoV Urbani [1]: 0.8 | Binding of Control Serum Blood-Bank to Looped peptides of the protein M of SARS-CoV Urbani [2]: 0.7 | Binding of Control serum Blood-bank to linear peptides of the protein M of SARS-CoV Urbani [2]: 0.7 | Binding of Control serum LUMC to linear peptides of the protein M of SARS-CoV Urbani [2]: 1.0 | Binding of Control serum LUMC to looped peptides of the protein M of SARS-CoV Urbani [2]: 0.8 | Rabbit serum linear peptides [3]: 0.3 | Rabbit serum looped peptides [3]: 0.4

YTQSTALQELLIQQW
Binding of serum 1a to linear peptides of protein X2 [1]: 0.6 | Binding of serum 1a to looped/cyclic peptides of protein X2 of SARS-CoV Urbani [1]: 0.6 | Binding of serum 1b to linear peptides of protein X2 [1]: 0.5 | Binding of serum 1b to looped/cyclic peptides of protein X2 of SARS-CoV Urbani [1]: 0.5 | Binding of serum 2 to linear peptides of protein X2 [1]: 0.4 | Binding of serum 2 to looped/cyclic peptides of protein X2 of SARS-CoV Urbani [1]: 0.5 | Binding of serum 6 to linear peptides of protein X2 [1]: 0.4 | Binding of serum 6 to looped/cyclic peptides of protein X2 of SARS-CoV Urbani [1]: 0.2 | Binding of serum 37 to linear peptides of protein X2 [1]: 0.5 | Binding of serum 37 to looped/cyclic peptides of protein X2 of SARS-CoV Urbani [1]: 0.4 | Binding of serum 62 to linear peptides of protein X2 [1]: 0.6 | Binding of serum 62 to looped/cyclic peptides of protein X2 of SARS-CoV Urbani [1]: 0.6 | Binding of serum London to linear peptides of protein X2 [1]: 0.5 | Binding of serum London to looped/cyclic peptides of protein X2 of SARS-CoV Urbani [1]: 0.2 | Binding of serum SARS-green to linear peptides of protein X2 [1]: 0.6 | Binding of serum SARS-green to looped/cyclic peptides of protein X2 of SARS-CoV Urbani [1]: 0.3 | Binding of serum SARS-yellow to linear peptides of protein X2 [1]: 0.6 | Binding of serum SARS-yellow to looped/cyclic peptides of protein X2 of SARS-CoV Urbani [1]: 0.3 | Binding of Control Serum Blood-Bank to Looped peptides [2]: 0.6 | Binding of Control serum Blood-bank to linear peptides [2]: 0.5 | Binding of Control serum LUMC to linear peptides [2]: 0.4 | Binding of Control serum LUMC to looped peptides [2]: 0.6 | Binding of a rabbit serum to linear peptides [3]: 0.3 | Binding of a rabbit serum to looped peptides [3]: 0.3
